Data from patent US20250230193A1, “CYCLIC COMPOUND HAVING SELECTIVE KRAS INHIBITORY EFFECT ON HRAS AND NRAS” (CHUGAI SEIYAKU KABUSHIKI KAISHA, priority 2022, published 2025).

How the values were obtained:
[1] = test system: human lung cancer strain NCI-H441; assay: cells; conditions: NCI-H441, 96 h, read-out: NCI-H441 IC50 (nM)
[2] = molecular target: GDP-bound NRAS wild-type protein (Homo sapiens, UniProt P01111); assay: Binding to NRAS by surface plasmon resonance (SPR), Single Cycle Kinetics; conditions: SPR; KD ratio class
[3] = molecular target: GDP-bound HRAS wild-type protein (Homo sapiens, UniProt P01112); assay: Binding to HRAS by surface plasmon resonance (SPR), Single Cycle Kinetics; conditions: SPR; KD ratio class
Chain of GDP-bound HRAS wild-type protein (P01112 whole entry): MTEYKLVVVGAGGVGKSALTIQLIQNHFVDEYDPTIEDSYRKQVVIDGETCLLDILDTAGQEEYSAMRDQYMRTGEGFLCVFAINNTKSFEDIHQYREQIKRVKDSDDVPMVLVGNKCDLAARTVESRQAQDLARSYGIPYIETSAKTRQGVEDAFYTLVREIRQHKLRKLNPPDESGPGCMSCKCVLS

Chain of GDP-bound NRAS wild-type protein (P01111 whole entry): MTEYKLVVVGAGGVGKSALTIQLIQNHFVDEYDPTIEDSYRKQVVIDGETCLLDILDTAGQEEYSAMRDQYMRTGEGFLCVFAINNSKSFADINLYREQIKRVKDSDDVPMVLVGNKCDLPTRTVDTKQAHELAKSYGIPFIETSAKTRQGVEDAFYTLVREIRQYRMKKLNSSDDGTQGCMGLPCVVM

| Compound | IC50 [1] | NRAS/KRAS (ratio of KD value for GDP-bound NRAS wild-type protein to KD value for KRAS) [2] | HRAS/KRAS (ratio of KD value for GDP-bound HRAS wild-type protein to KD value for KRAS) [3] |
| --- | --- | --- | --- |
| CCO[C@@H]1C[C@H]2C(=O)NC3(CCC3)C(=O)N(C)[C@@H](C3CCCC3)C(=O)N(C)[C@H](C(=O)N(C)C)CC(=O)N(C)[C@@H](CC(C)(C)C)C(=O)N[C@@H]([C@@H](C)CC)C(=O)N(C)CC(=O)N(C)[C@H]3C/C=C\CCN(C3=O)[C@@H](CC3CCCCC3)C(=O)N(C)CC(=O)N[C@@H](CCc3cc(F)c(C(F)(F)F)c(F)c3)C(=O)N2C1 [PP1474] | 48.2 nM | A (a compound having 10 or more and less than 20 is denoted as A) | A (a compound having 10 or more and less than 20 is denoted as A) |
| CCO[C@@H]1C[C@H]2C(=O)NC3(CCCC3)C(=O)N(C)[C@@H](C3CCCC3)C(=O)N(C)[C@H](C(=O)N(C)C)CC(=O)N(C)[C@@H](CC(C)C)C(=O)N[C@@H]([C@@H](C)CC)C(=O)N(C)CC(=O)N(C)[C@H]3C/C=C\CCN(C3=O)[C@@H](CC3CCCCC3)C(=O)N(C)CC(=O)N[C@@H](CCc3cc(F)c(C(F)(F)F)c(F)c3)C(=O)N2C1 [PP1473] | 36.6 nM | A (a compound having 10 or more and less than 20 is denoted as A) | A (a compound having 10 or more and less than 20 is denoted as A) |
| CCO[C@@H]1C[C@H]2C(=O)NC3(CCC3)C(=O)N(C)[C@@H](C3CCCC3)C(=O)N(C)[C@H](C(=O)N(C)C)CC(=O)N(C)[C@@H](CC3CCCC3)C(=O)N[C@@H]([C@@H](C)CC)C(=O)N(C)CC(=O)N(C)[C@H]3C/C=C\CCN(C3=O)[C@@H](Cc3ccc(C)cc3)C(=O)N(C)CC(=O)N[C@@H](CCc3cc(F)c(Cl)c(F)c3)C(=O)N2C1 [PP1486] | 15 nM | A (a compound having 10 or more and less than 20 is denoted as A) | A (a compound having 10 or more and less than 20 is denoted as A) |
| CCO[C@@H]1C[C@H]2C(=O)NC3(CCC3)C(=O)N(C)[C@@H](C3CCCC3)C(=O)N(C)[C@H](C(=O)N3CCCC3)CC(=O)N(C)[C@@H](CC3CCC3)C(=O)N[C@@H]([C@@H](C)CC)C(=O)N(C)CC(=O)N(C)[C@H]3C/C=C\CCN(C3=O)[C@@H](Cc3ccc(C)cc3)C(=O)N(C)CC(=O)N[C@@H](CCc3cc(F)c(C(F)(F)F)c(F)c3)C(=O)N2C1 [PP1425] | 20.2 nM | A (a compound having 10 or more and less than 20 is denoted as A) | B (a compound having 3 or more and less than 10 is denoted as B) |
| CCO[C@@H]1C[C@H]2C(=O)NC3(CCCC3)C(=O)N(C)[C@@H](C3CCCC3)C(=O)N(C)[C@H](C(=O)N(C)C)CC(=O)N(C)[C@@H](CC3CC3)C(=O)N[C@@H]([C@@H](C)CC)C(=O)N(C)CC(=O)N(C)[C@H]3C[C@@H](C)[C@@H](C)CN(C3=O)[C@@H](Cc3ccc(C(F)(F)F)cc3)C(=O)N(C)CC(=O)N[C@@H](CCc3ccc(C(F)(F)F)c(Cl)c3)C(=O)N2C1 [PP1362] | 3.7 nM | A (a compound having 10 or more and less than 20 is denoted as A) | B (a compound having 3 or more and less than 10 is denoted as B) |
| CCO[C@@H]1C[C@H]2C(=O)NC3(CCC3)C(=O)N(C)[C@@H](C3CCCC3)C(=O)N(C)[C@H](C(=O)N3CCOCC3)CC(=O)N(C)[C@@H](CC)C(=O)N[C@@H]([C@@H](C)CC)C(=O)N(C)CC(=O)N(C)[C@H]3C[C@@H](C)[C@@H](C)CN(C3=O)[C@@H](Cc3ccc(C(F)(F)F)cc3)C(=O)N(C)CC(=O)N[C@@H](CCc3ccc(C(F)(F)F)c(Cl)c3)C(=O)N2C1 [PP1360] | 4.9 nM | A (a compound having 10 or more and less than 20 is denoted as A) | B (a compound having 3 or more and less than 10 is denoted as B) |
| CCC[C@H]1C(=O)N[C@@H]([C@@H](C)CC)C(=O)N(C)CC(=O)N(C)[C@H]2C/C=C\CCN(C2=O)[C@@H](Cc2ccc(C(F)(F)F)cc2)C(=O)N(C)CC(=O)N[C@@H](CCc2ccc(C(F)(F)F)c(OC)c2)C(=O)N2C[C@H](OCC)C[C@H]2C(=O)NC2(CCC2)C(=O)N(C)[C@@H](C(CC)CC)C(=O)N(C)[C@H](C(=O)N(C)C)CC(=O)N1C [PP1208] | 24.4 nM | AA (a compound having 20 or more is denoted as AA) | A (a compound having 10 or more and less than 20 is denoted as A) |
| CC[C@H](C)[C@@H]1NC(=O)[C@H](CC)N(C)C(=O)C[C@@H](C(=O)N2CCOCC2)N(C)C(=O)[C@H](C2CCCC2)N(C)C(=O)C2(CCC2)NC(=O)[C@@H]2CCCN2C(=O)[C@H](CCc2ccc(C(F)(F)F)c(Cl)c2)NC(=O)CN(C)C(=O)[C@H](Cc2ccc(C(F)(F)F)cc2)N2C[C@H](C)CC[C@@H](C2=O)N(C)C(=O)CN(C)C1=O [PP1338] | 35 nM | B (a compound having 3 or more and less than 10 is denoted as B) | B (a compound having 3 or more and less than 10 is denoted as B) |
| CCO[C@@H]1C[C@H]2C(=O)NC3(CCC3)C(=O)N(C)[C@@H](C(CC)CC)C(=O)N(C)[C@H](C(=O)N(C)C)CC(=O)N(C)[C@@H](CC)C(=O)N[C@@H]([C@@H](C)CC)C(=O)N(C)CC(=O)N(C)[C@H]3C/C=C\CCN(C3=O)[C@@H](Cc3ccc(C(F)(F)F)cc3)C(=O)N(C)CC(=O)N[C@@H](CCc3ccc(C(F)(F)F)c(OC)c3)C(=O)N2C1 [PP1207] | 29.9 nM | AA (a compound having 20 or more is denoted as AA) | A (a compound having 10 or more and less than 20 is denoted as A) |
| CCO[C@@H]1C[C@H]2C(=O)NC3(CCC3)C(=O)N(C)[C@@H](C3CCCC3)C(=O)N(C)[C@H](C(=O)N3CCC3)CC(=O)N(C)[C@@H](CC)C(=O)N[C@@H]([C@@H](C)CC)C(=O)N(C)CC(=O)N(C)[C@H]3C/C=C\CCN(C3=O)[C@@H](CC3CCC(F)(F)CC3)C(=O)N(C)CC(=O)N[C@@H](CCc3cc(F)c(C(F)(F)F)c(F)c3)C(=O)N2C1 [PP1444] | 103 nM | A (a compound having 10 or more and less than 20 is denoted as A) | A (a compound having 10 or more and less than 20 is denoted as A) |

Continued, in another order:

| IC50 [1] | Compound | NRAS/KRAS (ratio of KD value for GDP-bound NRAS wild-type protein to KD value for KRAS) [2] | HRAS/KRAS (ratio of KD value for GDP-bound HRAS wild-type protein to KD value for KRAS) [3] |
| --- | --- | --- | --- |
| 48.8 nM | CCO[C@@H]1C[C@H]2C(=O)NC3(CC(C)(C)C3)C(=O)N(C)[C@@H](C3CCCC3)C(=O)N(C)[C@@H](C(C)C)CC(=O)N(C)[C@@H](CC3CC3)C(=O)N[C@@H]([C@@H](C)CC)C(=O)N(C)CC(=O)N(C)[C@H]3C/C=C\CCN(C3=O)[C@@H](Cc3ccc(C(F)(F)F)cc3)C(=O)N(C)CC(=O)N[C@@H](CCc3cc(F)c(C(F)(F)F)c(F)c3)C(=O)N2C1 [PP1594] | A (a compound having 10 or more and less than 20 is denoted as A) | A (a compound having 10 or more and less than 20 is denoted as A) |
| 15.9 nM | CCO[C@@H]1C[C@H]2C(=O)NC3(CCC3)C(=O)N(C)[C@@H](C3CCCC3)C(=O)N(C)[C@H](C(=O)N(C)C)CC(=O)N(C)[C@@H](CC3CCCC3)C(=O)N[C@@H]([C@@H](C)CC)C(=O)N(C)CC(=O)N(C)[C@H]3C/C=C\CCN(C3=O)[C@@H](Cc3ccc(C(F)(F)F)cc3)C(=O)N(C)CC(=O)N[C@@H](CCc3cc(F)c(Cl)c(F)c3)C(=O)N2C1 [PP1264] | A (a compound having 10 or more and less than 20 is denoted as A) | B (a compound having 3 or more and less than 10 is denoted as B) |
| 3.4 nM | CCCC[C@H]1C(=O)N[C@@H]([C@@H](C)CC)C(=O)N(C)CC(=O)N(C)[C@H]2C/C=C\CCN(C2=O)[C@@H](Cc2ccc(C(F)(F)F)cc2)C(=O)N(C)CC(=O)N[C@@H](CCc2cc(F)c(C(F)(F)F)c(F)c2)C(=O)N2C[C@H](OCC)C[C@H]2C(=O)NC2(CCC2)C(=O)N(C)[C@@H](C2CCCC2)C(=O)N(C)[C@H](C(=O)N(C)CC)CC(=O)N1C [PP1558] | A (a compound having 10 or more and less than 20 is denoted as A) | B (a compound having 3 or more and less than 10 is denoted as B) |
| 42.6 nM | CCO[C@@H]1C[C@H]2C(=O)NC3(CCC3)C(=O)N(C)[C@@H](C3CCCC3)C(=O)N(C)[C@H](C(=O)N3CCOCC3)CC(=O)N(C)[C@@H](CC3CC3)C(=O)N[C@@H]([C@@H](C)CC)C(=O)N(C)CC(=O)N(C)[C@H]3C/C=C\CCN(C3=O)[C@@H](Cc3ccc(C(F)(F)F)cc3)C(=O)N(C)CC(=O)N[C@@H](CCc3cc(F)c(C(F)(F)F)c(F)c3)C(=O)N2C1 [PP1283] | AA (a compound having 20 or more is denoted as AA) | A (a compound having 10 or more and less than 20 is denoted as A) |
| 3.6 nM | CCCOC[C@H]1C(=O)N[C@@H]([C@@H](C)CC)C(=O)N(C)CC(=O)N(C)[C@H]2C/C=C\CCN(C2=O)[C@@H](Cc2ccc(C(F)(F)F)cc2)C(=O)N(C)CC(=O)N[C@@H](CCc2cc(F)c(C(F)(F)F)c(F)c2)C(=O)N2C[C@H](OCC)C[C@H]2C(=O)NC2(CC(C)(C)C2)C(=O)N(C)[C@@H](C2CCCC2)C(=O)N(C)[C@H](C(=O)N(C)CC)CC(=O)N1C [PP1572] | A (a compound having 10 or more and less than 20 is denoted as A) | A (a compound having 10 or more and less than 20 is denoted as A) |
